Key:
rice = test: Test B flooded paddy test; format: in vivo, Oryza sativa; details: 500 g ai/ha, Flood; scale of 0 to 100 where 0 is no effect and 100 is complete control
Summary of the method: (§1)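 Visual ratings from 0, meaning no effect, up to 100, meaning complete control, were made by comparison with untreated controls 13 to 15 days after treatment. Test compounds went straight into floodwater standing 3 cm over the soil of pots holding 2-leaf seedlings.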

ducksalad = test: Test B flooded paddy test; format: in vivo, Heteranthera limosa; details: 500 g ai/ha, Flood; scale of 0 to 100 where 0 is no effect and 100 is complete control
Summary of the method: as §1

soybean = test: Test C pre-/postemergence herbicide test; format: in vivo, Glycine max
Summary of the method: (§2)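 Plants grown and held in a greenhouse for 13 to 15 days post-spray, then rated 0–100 by visual comparison with controls. Pre treatments targeted seeds in loam and sand; post treatments targeted 1- to 4-leaf plants in peat-based potting medium.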

barnyardgrass [1] = test: Test B flooded paddy test; format: in vivo, Echinochloa crus-galli; details: 500 g ai/ha, Flood; scale of 0 to 100 where 0 is no effect and 100 is complete control
Summary of the method: as §1

sedge, umbrella = test: Test B flooded paddy test; format: in vivo, Cyperus difformis; details: 500 g ai/ha, Flood; scale of 0 to 100 where 0 is no effect and 100 is complete control
Summary of the method: as §1

ragweed = test: Test C pre-/postemergence herbicide test; format: in vivo, Ambrosia elatior
Summary of the method: as §2

barnyardgrass [2] = test: Test A pre-/postemergence herbicide test; format: in vivo, Echinochloa crus-galli
Summary of the method: (§3)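 Approximately 10 days after treatment in the greenhouse, plants were compared with untreated controls and given a 0–100 visual injury rating. Applications: preemergence directed soil spray; postemergence on 2–10 cm plants at the one- to two-leaf stage.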

barnyardgrass [3] = test: Test C pre-/postemergence herbicide test; format: in vivo, Echinochloa crus-galli
Summary of the method: as §2

morningglory = test: Test C pre-/postemergence herbicide test; format: in vivo, Ipomoea coccinea
Summary of the method: as §2

blackgrass = test: Test C pre-/postemergence herbicide test; format: in vivo, Alopecurus myosuroides
Summary of the method: as §2

crabgrass, large = test: Test C pre-/postemergence herbicide test; format: in vivo, Digitaria sanguinalis
Summary of the method: as §2

giant foxtail = test: Test A pre-/postemergence herbicide test; format: in vivo, Setaria faberii
Summary of the method: as §3

corn = test: Test A pre-/postemergence herbicide test; format: in vivo, Zea mays; details: Postemergence
Summary of the method: as §3

[4] = Postemergence, 16 g ai/ha, scale 0 to 100 (0 no effect, 100 complete control)
[5] = Postemergence, 31 g ai/ha, scale 0 to 100 (0 no effect, 100 complete control)
[6] = Postemergence, 62 g ai/ha, scale 0 (no effect) to 100 (complete control)
[7] = Postemergence, 125 g ai/ha, scale 0 to 100 (0 no effect, 100 complete control)
[8] = Preemergence, 31 g ai/ha, scale 0 to 100, 0 is no effect and 100 is complete control
[9] = Preemergence, 62 g ai/ha, scale 0 to 100 (0 no effect, 100 complete control)
[10] = Preemergence, 125 g ai/ha, scale 0 to 100 (0 no effect, 100 complete control)
[11] = Preemergence, 16 g ai/ha, scale 0 to 100
[12] = Postemergence, 125 g ai/ha, visual rating on 0 to 100 scale (0 no effect, 100 complete control), approx. 10 days
[13] = Postemergence, 500 g ai/ha, 0 to 100 scale (0 no effect, 100 complete control)
[14] = Preemergence, 125 g ai/ha, 0 to 100 scale where 0 is no effect and 100 is complete control
[15] = Preemergence, 500 g ai/ha, visual rating on 0 to 100 scale (0 no effect, 100 complete control)

CN1CC(c2ccc(C(F)(F)F)cc2)C(C(=O)Nc2ccccc2F)C1=O (centres unmarked) [Compound 304]
Plant response rating, Rice (rice): 35
Plant response rating, Ducksalad (ducksalad): 100
Plant response rating, Soybean (soybean; [4]): 0
Plant response rating, Soybean (soybean; [5]): 0
Plant response rating, Soybean (soybean; [6]): 5
Plant response rating, Soybean (soybean; [7]): 10
Soybean plant response rating (soybean; [8]): 0
Soybean plant response rating (soybean; [9]): 0
Plant response rating, Soybean (soybean; [10]): 0
Plant response rating, Soybean (soybean; [11]): 0
Plant response rating, Barnyardgrass (barnyardgrass [1]): 80
Plant response rating, Sedge, Umbrella (sedge, umbrella): 0
Plant response rating, Ragweed (ragweed; [4]): 0
Plant response rating, Ragweed (ragweed; [5]): 0
Plant response rating, Ragweed (ragweed; [6]): 0
Plant response rating, Ragweed (ragweed; [7]): 35
Ragweed plant response rating (ragweed; [8]): 60
Ragweed plant response rating (ragweed; [9]): 60
Plant response rating, Ragweed (ragweed; [10]): 80
Plant response rating, Ragweed (ragweed; [11]): 25
Plant response rating, Barnyardgrass (barnyardgrass [2]; [12]): 80
Plant response rating, Barnyardgrass (barnyardgrass [2]; [13]): 90
Plant response rating, Barnyardgrass (barnyardgrass [2]; [14]): 90
Barnyardgrass plant response rating (barnyardgrass [2]; [15]): 90
Plant response rating, Barnyardgrass (barnyardgrass [3]; [4]): 0
Plant response rating, Barnyardgrass (barnyardgrass [3]; [5]): 0
Plant response rating, Barnyardgrass (barnyardgrass [3]; [6]): 0
Plant response rating, Barnyardgrass (barnyardgrass [3]; [7]): 40
Barnyardgrass plant response rating (barnyardgrass [3]; [8]): 85
Barnyardgrass plant response rating (barnyardgrass [3]; [9]): 90
Plant response rating, Barnyardgrass (barnyardgrass [3]; [10]): 95
Plant response rating, Barnyardgrass (barnyardgrass [3]; [11]): 85
Plant response rating, Morningglory (morningglory; [4]): 20
Plant response rating, Morningglory (morningglory; [5]): 50
Plant response rating, Morningglory (morningglory; [6]): 20
Plant response rating, Morningglory (morningglory; [7]): 45
Morningglory plant response rating (morningglory; [8]): 5
Morningglory plant response rating (morningglory; [9]): 50
Plant response rating, Morningglory (morningglory; [10]): 40
Plant response rating, Morningglory (morningglory; [11]): 0
Plant response rating, Blackgrass (blackgrass; [4]): 0
Plant response rating, Blackgrass (blackgrass; [5]): 0
Plant response rating, Blackgrass (blackgrass; [6]): 0
Plant response rating, Blackgrass (blackgrass; [7]): 0
Blackgrass plant response rating (blackgrass; [8]): 35
Blackgrass plant response rating (blackgrass; [9]): 60
Plant response rating, Blackgrass (blackgrass; [10]): 70
Plant response rating, Blackgrass (blackgrass; [11]): 30
Plant response rating, Crabgrass, Large (crabgrass, large; [4]): 10
Plant response rating, Crabgrass, Large (crabgrass, large; [5]): 10
Plant response rating, Crabgrass, Large (crabgrass, large; [6]): 60
Plant response rating, Crabgrass, Large (crabgrass, large; [7]): 80
Crabgrass, Large plant response rating (crabgrass, large; [8]): 95
Crabgrass, Large plant response rating (crabgrass, large; [9]): 95
Plant response rating, Crabgrass, Large (crabgrass, large; [10]): 98
Plant response rating, Crabgrass, Large (crabgrass, large; [11]): 90
Plant response rating, Foxtail, Giant (giant foxtail; [12]): 80
Plant response rating, Foxtail, Giant (giant foxtail; [13]): 80
Plant response rating, Foxtail, Giant (giant foxtail; [14]): 90
Foxtail, Giant plant response rating (giant foxtail; [15]): 90
Plant response rating, Corn (corn; 125 g ai/ha, visual rating on 0 to 100 scale (0 no effect, 100 complete control), approx. 10 days): 30
Plant response rating, Corn (corn; 500 g ai/ha, 0 to 100 scale (0 no effect, 100 complete control)): 70
